Results from publication PMC7367283, “A PIP2 substitute mediates voltage sensor-pore coupling in KCNQ activation” (Communications Biology, 2020).
“And” between values parts separate entries of the source, which are not always exact repeats. Equal values may be shown once.

Key:
Assay in all cases: Two-electrode voltage clamp of mutant KCNQ1 in Xenopus oocytes
Type in all cases: cell-based
[1] = target: KCNQ1 R249A/S253A (Homo sapiens, UniProt P51787, R249A/S253A); conditions: 10 µM CP1, individual oocytes
Text: (§1) In a previous study, mutation of residues in the predicted PIP2-binding site reduced KCNQ1 currents. CP1 modifies voltage-dependent activation of KCNQ1 channels by shifting the voltage dependence of channel opening, measured as the voltage dependence of the conductance (G–V) relationship, to more negative voltages (Fig. 1c) among other characteristics (see below). We made mutations to the residues around the CP1-interacting pocket as indicated by molecular docking (Fig. 1b), and examined the effects of the mutations on the CP1-induced shift of the G–V relationship. The mutations of the KCNQ1 residues that interact with CP1 in docking simulations reduced the shift of the G–V relationship (Fig. 1c, d), supporting the interaction of these residues with CP1.
(§2) Complementary DNA (cDNA) encoding human KCNQ1 (UniProtKB/Swiss‐Prot under accession no. P51787), KCNQ2 (O43526), KCNQ3 (O43525), KCNE1 (P15382), Kir1.1 (P48048), hERG (Q12809), KV4.2 (Q63881), NaV1.5 (Q14524), NaV β1 (Q07699), CaV1.2 (Q13936), CaV β1a (Q02641), CaV α2/δ1 (P54289), and HCN4 (Q9Y3Q4) were subcloned into oocyte expression vectors, respectively. Site-directed mutations of the KCNQ1 channel were all produced by overlap extension polymerase chain reaction (PCR) with high-fidelity Pfu polymerase (Stratagene, CA). The presence of the desired mutation was verified by sequencing the PCR-amplified regions. All the primer sequences used in this study are available in Supplementary Table 1. The complementary RNA (cRNA) of all these channels and mutations was transcribed in vitro with the T3, T7, or SP6 polymerase mMessage mMachine kit (Invitrogen, Thermo Fisher Scientific, MO).
(§3) The use of Xenopus laevis to obtain oocytes was approved by the Washington University Animal Studies Committee (protocol #20190030). Oocytes were manually dispersed and digested with collagenase (0.5 mg/ml, Sigma-Aldrich, Saint Louis, MO) to remove the follicle cell layer. Stage V or VI oocytes were selected and injected with cRNAs (9.2 ng) of channel or mutations. Especially, to characterize IKs, a mix of cRNAs at a molar ratio 4:1 (KCNQ1:KCNE1) was injected. For KCNQ2/KCNQ3, the molar ratio was 1:1 (KCNQ2:KCNQ3). For sodium channels, a 3:1 molar ratio (β1:NaV1.5) and for calcium channels a weight ratio 1:1:1 (β1:α2/δ1:CaV1.2) was injected, respectively. Injected oocytes were incubated in ND96 solution containing (in mM) 96 NaCl, 2 KCl, 1.8 CaCl2, 1 MgCl2, and 5 HEPES, pH 7.6, supplemented with 2.5 mM Na pyruvate and 1% penicillin–streptomycin, at 18 °C for 3–7 days before recording.
(§4) The whole-oocyte ionic currents were recorded with a GeneClamp 500B amplifier (Axon Instruments, CA) or iTEV90 amplifier (HEKA, Germany) and then sampled at 1 kHz and low-pass-filtered at 2 kHz. The Patchmaster software (HEKA, Germany) was used to acquire data. The Kir1.1 current was recorded with a high K^+ bath solution containing (in mM) 96 KCl, 4 NaCl, 1 CaCl2, 2 MgCl2, and 10 HEPES, pH 7.3–7.4. The HCN4 current was recorded in ND66 solution containing (in mM) 66 NaCl, 32 KCl, 1.8 CaCl2, 1 MgCl2, and 5 HEPES, pH 7.6. All the other potassium channels were recorded in ND96 solution. The currents of CaV1.2 channel were recorded in 40 mM Ba^2+ bath solution containing (in mM) 40 Ba(OH)2, 50 TEA-OH, 2 KOH, and 5 HEPES, adjusted to pH 7.4 with methanesulfonic acid. CP1 (DISODIUM 5-BROMO-2-[9-CHLORO-3-(SULFONATOOXY) NAPHTHO [1,2-B] THIEN-2-YL]-1H-INDOL-3-YL SULFATE, Sigma-Aldrich, MO) and Chromanol 293B (Sigma-Aldrich, MO) were dissolved in bath solutions. All the chemicals were purchased from Sigma-Aldrich. To measure the I–V relations of the Kir1.1 channel, the test voltage was set from −100 to +60 mV for 1 s with 20-mV increments. The test pulses were stepped from a holding potential of 0 mV and then stepped back to 0 mV. The HCN4 currents were recorded by a test pulse between −30 and −140 mV in 10-mV step from a holding potential of −30 mV. […]

[2] = target: KCNQ1 K354A (Homo sapiens, UniProt P51787, K354A)
Text: as §1, §2, §3, §4

[3] = target: KCNQ1 W248R (Homo sapiens, UniProt P51787, W248R); conditions: 10 µM CP1, individual oocytes
Text: as §1, §2, §3, §4

- ∆V1/2 [1]: 49.1729 mV and 54.4047 mV and 38.3473 mV
- G/Gmax ([2]; 10 µM CP1, -10 mV): 1.0000
- G/Gmax ([2]; 10 µM CP1, -20 mV): 0.9896
- G/Gmax ([2]; 10 µM CP1, -30 mV): 0.9492
- G/Gmax ([2]; 10 µM CP1, -40 mV): 0.8838
- G/Gmax ([2]; 10 µM CP1, -50 mV): 0.7639
- G/Gmax ([2]; 10 µM CP1, -60 mV): 0.6020
- G/Gmax ([2]; 10 µM CP1, -70 mV): 0.4417
- G/Gmax ([2]; 10 µM CP1, -80 mV): 0.3190
- G/Gmax ([2]; 10 µM CP1, -90 mV): 0.2082
- G/Gmax ([2]; 10 µM CP1, -100 mV): 0.1212
- G/Gmax ([2]; 10 µM CP1, -110 mV): 0.0566
- G/Gmax ([2]; 10 µM CP1, -120 mV): 0.0000
- ∆V1/2 [3]: 27.0173 mV and 42.5898 mV and 38.6048 mV
Structure (SMILES): O=S(=O)([O-])Oc1c(-c2sc3c(ccc4cccc(Cl)c43)c2OS(=O)(=O)[O-])[nH]c2ccc(Br)cc12.[Na+].[Na+] [CP1, DISODIUM 5-BROMO-2-[9-CHLORO-3-(SULFONATOOXY) NAPHTHO [1,2-B] THIEN-2-YL]-1H-INDOL-3-YL SULFATE]
- ∆V1/2 ([2]; 10 µM CP1, individual oocytes): 42.6379 mV and 47.4781 mV and 37.0916 mV and 51.9279 mV and 26.7588 mV
